Reference: ChEMBL document CHEMBL5214976, “Design, synthesis and anti-tumor activity studies of novel pyrido[3, 4-d]pyrimidine derivatives” (Bioorg Med Chem Lett, 2022)
Activity calls are given as the source filed them. The rule behind the calls is not given here.

Experiments:
[1] = tested on: MGC-803; assay: Antitumor activity human MGC-803 cells assessed as inhibition of cell proliferation incubated for 72 hrs by MTT assay; format: functional, cell-based; conditions: MGC-803, 72 h
[2] = tested on: HepG2; assay: Antitumor activity human HepG2 cells assessed as inhibition of cell proliferation incubated for 72 hrs by MTT assay; format: functional, cell-based; conditions: HepG2, 72 h
[3] = tested on: PC-3; assay: Antitumor activity against human PC-3 cells assessed as inhibition of cell proliferation incubated for 72 hrs by MTT assay; format: functional, cell-based; conditions: PC-3, 72 h
[4] = tested on: MGC-803; assay: Induction of apoptosis in human MGC-803 cells assessed as early apoptotic cells at 0.5 uM by Annexin V-FITC/PI staining based flow cytometric analysis (reference value: 1.8 %); format: functional
[5] = tested on: MGC-803; assay: Induction of apoptosis in human MGC-803 cells assessed as early apoptotic cells at 0.25 uM by Annexin V-FITC/PI staining based flow cytometric analysis (reference value: 1.8 %); format: functional
[6] = tested on: MGC-803; assay: Induction of apoptosis in human MGC-803 cells assessed as total apoptotic cells at 0.5 uM by Annexin V-FITC/PI staining based flow cytometric analysis (reference value: 4.6%); format: functional
[7] = tested on: MGC-803; assay: Induction of apoptosis in human MGC-803 cells assessed as late apoptotic cells at 0.25 uM by Annexin V-FITC/PI staining based flow cytometric analysis (reference value: 2.8 %); format: functional
[8] = tested on: MGC-803; assay: Induction of apoptosis in human MGC-803 cells assessed as necrotic cells at 0.75 uM by Annexin V-FITC/PI staining based flow cytometric analysis (reference value: 0.4 %); format: functional
[9] = tested on: MGC-803; assay: Induction of cell cycle arrest in human MGC-803 cells assessed as accumulation of cells at G1/S phase by measuring decrease in CycD1 protein expression at 0.25 to 0.75 uM by Western blot analysis; format: functional, cell-based; conditions: dose 0.25-0.75 µM
[10] = tested on: MGC-803; assay: Induction of apoptosis in human MGC-803 cells assessed as viable cells at 0.25 uM by Annexin V-FITC/PI staining based flow cytometric analysis (reference value: 95.0 %); format: functional; conditions: read-out: Activity
[11] = tested on: MGC-803; assay: Induction of apoptosis in human MGC-803 cells assessed as late apoptotic cells at 0.75 uM by Annexin V-FITC/PI staining based flow cytometric analysis (reference value: 2.8 %); format: functional
[12] = tested on: MGC-803; assay: Induction of apoptosis in human MGC-803 cells assessed as total apoptotic cells at 0.25 uM by Annexin V-FITC/PI staining based flow cytometric analysis (reference value: 4.6%); format: functional
[13] = tested on: MGC-803; assay: Induction of apoptosis in human MGC-803 cells assessed as necrotic cells at 0.25 uM by Annexin V-FITC/PI staining based flow cytometric analysis (reference value: 0.4 %); format: functional
[14] = tested on: MGC-803; assay: Induction of apoptosis in human MGC-803 cells assessed as early apoptotic cells at 0.75 uM by Annexin V-FITC/PI staining based flow cytometric analysis (reference value: 1.8 %); format: functional
[15] = tested on: MGC-803; assay: Induction of apoptosis in human MGC-803 cells assessed as necrotic cells at 0.5 uM by Annexin V-FITC/PI staining based flow cytometric analysis (reference value: 0.4 %); format: functional
[16] = tested on: MGC-803; assay: Induction of apoptosis in human MGC-803 cells assessed as total apoptotic cells at 0.75 uM by Annexin V-FITC/PI staining based flow cytometric analysis (reference value: 4.6%); format: functional
[17] = tested on: MGC-803; assay: Induction of apoptosis in human MGC-803 cells assessed as increase in Bid protein expression by Western blot analysis; format: functional, cell-based; conditions: dose 0.25-0.75 µM, DDE = dose-dependent effect
[18] = tested on: MGC-803; assay: Induction of apoptosis in human MGC-803 cells assessed as viable cells at 0.75 uM by Annexin V-FITC/PI staining based flow cytometric analysis (reference value: 95.0 %); format: functional; conditions: read-out: Activity
[19] = tested on: MGC-803; assay: Induction of apoptosis in human MGC-803 cells assessed as late apoptotic cells at 0.5 uM by Annexin V-FITC/PI staining based flow cytometric analysis (reference value: 2.8 %); format: functional
[20] = tested on: MGC-803; assay: Induction of apoptosis in human MGC-803 cells assessed as viable cells at 0.5 uM by Annexin V-FITC/PI staining based flow cytometric analysis (reference value: 95.0 %); format: functional; conditions: read-out: Activity
[21] = tested on: MGC-803; assay: Induction of apoptosis in human MGC-803 cells assessed as increase in PARP protein expression by Western blot analysis; format: functional, cell-based; conditions: dose 0.25-0.75 µM, DDE = dose-dependent effect
[22] = tested on: MGC-803; assay: Antiproliferative activity against human MGC-803 cells assessed as inhibition of cell proliferation incubated for 48 hrs by MTT assay; format: functional, cell-based; conditions: MGC-803, 48 h
[23] = tested on: MGC-803; assay: Potency index, ratio of 5-fluorouracil IC50 to test compound IC50 for antiproliferative activity against human MGC-803 cells assessed as inhibition of cell proliferation incubated for 72 hrs by MTT assay; format: functional
[24] = tested on: HepG2; assay: Potency index, ratio of 5-fluorouracil IC50 to test compound IC50 for antiproliferative activity against human HepG2 cells assessed as inhibition of cell proliferation incubated for 72 hrs by MTT assay; format: functional

SMILES | IC50 [1] [µM] | IC50 [2] [µM] | IC50 [3] [µM] | further results
C#CCSc1nc(Nc2ccc(Cl)cc2Cl)c2ccncc2n1 | 25.5 | 11 | 30.4 | –
COc1cccc(Nc2nc(SCC3CCCCC3)nc3cnccc23)c1 | 23.7 | 32.8 | 27.5 | –
C#CCSc1nc(N2CCN(C)CC2)c2ccncc2n1 | > 80 | > 80 | > 80 | –
C#CCSc1nc(Nc2ccccc2O)c2ccncc2n1 | 21 | > 80 | 18.7 | –
C#CCSc1nc(Nc2ccc([N+](=O)[O-])cc2)c2ccncc2n1 | > 80 | > 80 | > 80 | –
C#CCSc1nc(Nc2ccccc2Cl)c2ccncc2n1 | 27.6 | 17.2 | > 80 | –
C#CCSc1nc(Nc2cccc(O)c2)c2ccncc2n1 | 15.7 | 29.5 | > 80 | –
C#CCSc1nc(N2CCN(C(=O)OC(C)(C)C)CC2)c2ccncc2n1 | > 80 | 55.9 | 47.5 | –
C#CCSc1nc(Nc2ccc(F)cc2)c2ccncc2n1 | 15.8 | 10.8 | 17.3 | –
CCSc1nc(Nc2cccc(OC)c2)c2ccncc2n1 | 0.59 | 10.7 | 7.15 | Activity [4]: 16%; Activity [5]: 6.8%; Activity [6]: 27.6%; Activity [7]: 3%; Activity [8]: 0.2%; Activity [9]: Active; viability at 0.25 µM [10]: 90%; Activity [11]: 36.8%; Activity [12]: 9.8%; Activity [13]: 0.2%; Activity [14]: 38.9%; Activity [15]: 0.5%; Activity [16]: 75.7%; Activity [17]: Dde; viability at 0.75 µM [18]: 24.1%; Activity [19]: 11.6%; viability at 0.5 µM [20]: 71.9%; Activity [21]: Dde
C#CCSc1nc(N2CCN(CC)CC2)c2ccncc2n1 | 70.6 | > 80 | > 80 | –
Cc1cc(Cc2nc(C)c3ccccc3n2)n2ncnc2n1 | – | – | – | IC50 [22]: 8.28 µM
C#CCSc1nc(Nc2ccc(OC)cc2)c2ccncc2n1 | > 80 | > 80 | 15.1 | –
COc1cccc(Nc2nc(SCC3CC3)nc3cnccc23)c1 | 1.34 | 24.9 | 14.8 | –
C#CCSc1nc(Nc2ccc(C)cc2)c2ccncc2n1 | 8.09 | 6.17 | 15.7 | –
C#CCSc1nc(Nc2cccc(OC)c2)c2ccncc2n1 | 2.07 | 0.92 | 17.1 | Ratio IC50 [23]: 3; Ratio IC50 [24]: 30

SMILES | IC50 [1] [µM] | IC50 [2] [µM] | IC50 [3] [µM] | further results
O=c1[nH]cc(F)c(=O)[nH]1 [FLUOROURACIL] | 7.21 | 29.8 | 15.1 | –
C#CCSc1nc(Nc2ccc(Cl)cc2)c2ccncc2n1 | 16.4 | 36.7 | 19 | –
C/C=C/Sc1nc(Nc2cccc(OC)c2)c2ccncc2n1 | 1.03 | 18.1 | 6.79 | –
C#CCSc1nc(N2CCSCC2)c2ccncc2n1 | > 80 | > 80 | > 80 | –
C#CCSc1nc(N2CCN(Cc3ccccc3)CC2)c2ccncc2n1 | > 80 | > 80 | > 80 | –
C#CCSc1nc(N2CCOCC2)c2ccncc2n1 | > 80 | > 80 | > 80 | –
C#CCSc1nc(NCCC#N)c2ccncc2n1 | > 80 | > 80 | > 80 | –
C#CCSc1nc(Nc2ccccc2)c2ccncc2n1 | 16.2 | 29.4 | > 80 | –
C#CCSc1nc(Nc2ccc(O)cc2)c2ccncc2n1 | > 80 | > 80 | > 80 | –
CCCSc1nc(Nc2cccc(OC)c2)c2ccncc2n1 | 1.95 | 17.3 | 15.3 | –
C#CCSc1nc(Nc2ccccc2OC)c2ccncc2n1 | 3.44 | 4.53 | > 80 | –
C#CCSc1nc(Nc2cccc(Cl)c2)c2ccncc2n1 | 2.19 | 1.09 | 56.5 | –
C#CCSc1nc(Nc2ccc(Br)cc2)c2ccncc2n1 | 26 | 56.2 | 26 | –
C#CCSc1nc(Nc2cc(OC)c(OC)c(OC)c2)c2ccncc2n1 | 5.68 | 14.2 | 30.7 | –
C#CCSc1nc(NCCC(C)C)c2ccncc2n1 | > 80 | > 80 | > 80 | –
